Source: patent publication US9049864B2, “Pyridazinone herbicidal compounds” (Syngenta Limited, priority 2012, dated 2015)

Tests used:
Test in all cases: Post-emergence herbicidal glasshouse test, percentage damage to the plant
Type in all cases: in vivo
Setaria faberi (SETFA) = system: Setaria faberi (SETFA)
In short: (§1)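 Activity appears as a score from 1 (0-19% damage) to 5 (80-100%), assessed 13 days after a post-emergence spray of 8-day-old plants. Comparative runs used 250, 500 and 1000 g/ha; the standard rate was 1000 g/ha, formulated in acetone/water (50:50) with 0.5% Tween 20.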

Solanum nigrum (SOLNI) = system: Solanum nigrum (SOLNI)
In short: as §1

[1] = system: Alopecurus myosuroides (ALOMY)
In short: as §1

[2] = system: Amaranthus retoflexus (AMARE)
In short: as §1

[3] = system: Ipomoea hederacea (IPOHE)
In short: as §1

[4] = system: Echinochloa crus-galli (ECHCG)
In short: as §1

[5] = comparative experiment, rate 250 g/ha
[6] = comparative experiment, rate 500 g/ha
[7] = comparative experiment, rate 1000 g/ha
[8] = post-emergence, 1000 g/ha, evaluated after 13 days

Row | SMILES | POST Application SETFA, percentage damage (five point scale) (Setaria faberi (SETFA); [8]) | POST Application SOLNI, percentage damage (five point scale) (Solanum nigrum (SOLNI); [8]) | POST Application ALOMY, percentage damage (five point scale) [1, 8] | POST Application AMARE, percentage damage (five point scale) [2, 8] | POST Application IPOHE, percentage damage (five point scale) [3, 8] | POST Application ECHCG, percentage damage (five point scale) [4, 8] | also measured
1 | CN1N=CC(=O)C(n2nc(Cl)c3ccccc32)C1=O (stereo not drawn) [Compound 1.001, 4-(3-chloroindazol-1-yl)-2-methyl-pyridazine-3,5-dione] | 2 (2=20-39%) | 5 (5=80-100%) | 1 (1=0-19%) | 5 (5=80-100%) | 5 (5=80-100%) | 4 (4=60-79%) | POST Application SETFA, percentage damage (five point scale) (Setaria faberi (SETFA); [5]): 1 (1=0-19%); POST Application SETFA, percentage damage (five point scale) (Setaria faberi (SETFA); [6]): 1 (1=0-19%); POST Application SETFA, percentage damage (five point scale) (Setaria faberi (SETFA); [7]): 3 (3=40-59%); POST Application SOLNI, percentage damage (five point scale) (Solanum nigrum (SOLNI); [5]): 5 (5=80-100%); POST Application SOLNI, percentage damage (five point scale) (Solanum nigrum (SOLNI); [6]): 5 (5=80-100%); POST Application SOLNI, percentage damage (five point scale) (Solanum nigrum (SOLNI); [7]): 5 (5=80-100%); POST Application ALOMY, percentage damage (five point scale) [1, 5]: 2 (2=20-39%); POST Application ALOMY, percentage damage (five point scale) [1, 6]: 2 (2=20-39%); POST Application ALOMY, percentage damage (five point scale) [1, 7]: 2 (2=20-39%); POST Application AMARE, percentage damage (five point scale) [2, 5]: 4 (4=60-79%); POST Application AMARE, percentage damage (five point scale) [2, 6]: 4 (4=60-79%); POST Application AMARE, percentage damage (five point scale) [2, 7]: 4 (4=60-79%); POST Application IPOHE, percentage damage (five point scale) [3, 5]: 5 (5=80-100%); POST Application IPOHE, percentage damage (five point scale) [3, 6]: 5 (5=80-100%); POST Application IPOHE, percentage damage (five point scale) [3, 7]: 5 (5=80-100%); POST Application ECHCG, percentage damage (five point scale) [4, 5]: 2 (2=20-39%); POST Application ECHCG, percentage damage (five point scale) [4, 6]: 3 (3=40-59%); POST Application ECHCG, percentage damage (five point scale) [4, 7]: 3 (3=40-59%)
2 | Cc1nn(C)c(=O)c(-n2c(Cl)c(Cl)c3ccccc32)c1OC(=O)C(C)(C)C [Compound 3.008] | 1 (1=0-19%) | 5 (5=80-100%) | 2 (2=20-39%) | 5 (5=80-100%) | 5 (5=80-100%) | 3 (3=40-59%) | –
3 | CN1N=C(C#N)C(=O)C(n2c(Cl)c(Cl)c3ccccc32)C1=O (stereo not drawn) [Compound 2.001] | 2 (2=20-39%) | 5 (5=80-100%) | 1 (1=0-19%) | 3 (3=40-59%) | 5 (5=80-100%) | 2 (2=20-39%) | –
4 | CN1N=CC(=O)C(n2cc(Cl)c3cc(Cl)ccc32)C1=O (stereo not drawn) [Compound 1.016] | 1 (1=0-19%) | 5 (5=80-100%) | 1 (1=0-19%) | 2 (2=20-39%) | 4 (4=60-79%) | 1 (1=0-19%) | –
5 | CCOC1=NN(C)C(=O)C(n2c(Cl)c(Cl)c3ccccc32)C1=O (stereo not drawn) [Compound 2.023] | 1 (1=0-19%) | 4 (4=60-79%) | 1 (1=0-19%) | 2 (2=20-39%) | 4 (4=60-79%) | 1 (1=0-19%) | –
6 | CC1=NN(C)C(=O)C(n2nc(C(F)(F)F)cc2C)C1=O (stereo not drawn) [Compound A, reference compound] | – | – | – | – | – | – | POST Application SETFA, percentage damage (five point scale) (Setaria faberi (SETFA); [5]): 1 (1=0-19%); POST Application SETFA, percentage damage (five point scale) (Setaria faberi (SETFA); [6]): 1 (1=0-19%); POST Application SETFA, percentage damage (five point scale) (Setaria faberi (SETFA); [7]): 2 (2=20-39%); POST Application SOLNI, percentage damage (five point scale) (Solanum nigrum (SOLNI); [5]): 3 (3=40-59%); POST Application SOLNI, percentage damage (five point scale) (Solanum nigrum (SOLNI); [6]): 4 (4=60-79%); POST Application SOLNI, percentage damage (five point scale) (Solanum nigrum (SOLNI); [7]): 5 (5=80-100%); POST Application ALOMY, percentage damage (five point scale) [1, 5]: 1 (1=0-19%); POST Application ALOMY, percentage damage (five point scale) [1, 6]: 1 (1=0-19%); POST Application ALOMY, percentage damage (five point scale) [1, 7]: 2 (2=20-39%); POST Application AMARE, percentage damage (five point scale) [2, 5]: 3 (3=40-59%); POST Application AMARE, percentage damage (five point scale) [2, 6]: 4 (4=60-79%); POST Application AMARE, percentage damage (five point scale) [2, 7]: 4 (4=60-79%); POST Application IPOHE, percentage damage (five point scale) [3, 5]: 4 (4=60-79%); POST Application IPOHE, percentage damage (five point scale) [3, 6]: 5 (5=80-100%); POST Application IPOHE, percentage damage (five point scale) [3, 7]: 5 (5=80-100%); POST Application ECHCG, percentage damage (five point scale) [4, 5]: 1 (1=0-19%); POST Application ECHCG, percentage damage (five point scale) [4, 6]: 2 (2=20-39%); POST Application ECHCG, percentage damage (five point scale) [4, 7]: 3 (3=40-59%)
7 | CN1N=C(COCC(F)(F)F)C(=O)C(n2c(Cl)c(Cl)c3ccccc32)C1=O (stereo not drawn) [Compound 2.012] | 1 (1=0-19%) | 4 (4=60-79%) | 1 (1=0-19%) | 1 (1=0-19%) | 4 (4=60-79%) | 1 (1=0-19%) | –
8 | CC[S+]([O-])C1=NN(C)C(=O)C(n2c(Cl)c(Cl)c3ccccc32)C1=O (stereo not drawn) [Compound 2.006] | 1 (1=0-19%) | 4 (4=60-79%) | 1 (1=0-19%) | 1 (1=0-19%) | 4 (4=60-79%) | 1 (1=0-19%) | –
9 | Cc1nn(C)c(=O)c(-n2c(Cl)c(Cl)c3ccccc32)c1OC(=O)SC(C)C [Compound 3.001, [5-(2,3-dichloroindol-1-yl)-1,3-dimethyl-6-oxo-pyridazin-4-yl]isopropylsulfanylformate] | 1 (1=0-19%) | 5 (5=80-100%) | 1 (1=0-19%) | 5 (5=80-100%) | 5 (5=80-100%) | 1 (1=0-19%) | –
10 | CN1N=CC(=O)C(n2c(Cl)c(Cl)c3ccccc32)C1=O (stereo not drawn) [Compound 1.013] | 2 (2=20-39%) | 5 (5=80-100%) | 1 (1=0-19%) | 5 (5=80-100%) | 5 (5=80-100%) | 1 (1=0-19%) | –
